# Laboratory results as given in patent EP0402733A2, “Agent for the treatment of central nervous system illnesses and for the enhancement of cerebral blood flow” (Dr. Karl Thomae GmbH, priority 1989, dated 1990).
# Legend:
# [1] = molecular target: muscarinische Rezeptoren der Pia mater des Rindes; assay: Inhibition of 3H-NMS binding to muscarinic receptors of bovine pia mater homogenate; parameters: species or system Rind; conditions: 0,3 nM [³H]NMS, 45 min, room temperature
# Protocol: Die Pia-Gefäße von Rinder-Hirnen, erhalten vom lokalen Schlachthof, wurden präpariert und von Blutresten gereinigt. Je 0,5 g-Portionen wurden bei 8°C bis zur weiteren Verwendung gelagert. Zur Homogenatgewinnung wurden 0,5 g Pia-Geäße mittels eines Gewebehackers zerkleinert, in 60 ml HEPES-Puffer (20 mM HEPES, 10 mM MgCl₂, 100 mM NaCl, pH 7,50) aufgenommen, mit einem Ultra-Turrax homogenisiert und 20 min. bei 0°C mit 48000 x g zentrifugiert. Das Pellet wurde erneut mit einem Ultra-Turrax homogenisiert, durch Mull filtriert und mit HEPES-Puffer auf eine Verdünnung von 1:140 bezogen auf das Feuchtgewicht der Gefäße verdünnt.
# 0,3 nM [³H]NMS und steigende Konzentrationen des Antagonisten wurden mit dem Homogenat in einem Gesamtvolumen von 0,52 ml für 45 min. bei Raumtemperatur inkubiert. Der Inkubationsansatz wurde mit Hilfe eines Scatron Cell Harvesters über Glasfaser-Filtermatten filtriert und zweimal mit eiskalter physiologischer Kochsalzlösung gewaschen. Die Filter-gebundene Radioaktivität wurde in einem Flüssigkeitsszintillationszähler bestimmt. Als unspezifische Bindung wurde die gebundene Radioaktivität in Gegenwart von 10⁻⁶M (-)-Chinuclidinyl-benzilat definiert.
# [2] = test system: inhibitorischen Autorezeptoren in hippocampalem Gewebe; assay: Transmitter release study: in vitro acetylcholine release from electrically stimulated hippocampal slices, antagonism of carbachol; type: biochemical, Ratten
# Source text: Die Versuche zur in-vitro Freisetzung von Acetylcholin aus hippocampalen Gewebeschnitten wurden in Analogie zu Anordnungen durchgeführt, die für die Freisetzung von 5-HT aus Hypothalamus- bzw. Hippocampus-Gewebe beschrieben sind (vgl. M.H. Richards, Naunyn Schmiedeberg's Arch. Pharmacol. 329, 359-366 (1985) und T.J. Feuerstein, G. Hertting und R. Jackisch, Europ. J. Pharmacol. 107, 233-242 (1985)).
# Männliche Ratten (Stamm Chbb:Thom, Gewicht 200 bis 300 g) wurden ohne Vorbehandlung dekapitiert; das gesamte Gehirn wurde sofort entnommen und unter Eiskühlung zerlegt. Gemäß den oben beschriebenen Verfahren wurde der Hippocampus in 0,4 mm dicke Schnitte mit Hilfe eines McIlwain-Gewebehackers geschnitten. Die Gewebeschnitte wurden 30 Minuten lang bei 37°C vorincubiert in Gegenwart von 0,05 mM ³H-Cholin in einem Krebs-Henseleit Puffer der folgenden Zusammensetzung: 120 mM NaCl, 4,8 mM KCl, 1,3 mM CaCl₂, 1,2 mM KH₂PO₄, 1,2 mM MgSO₄ und 25 mM NaHCO₃. Der Puffer enthielt zusätzlich 2 g Glucose und 100 mg EDTA. Der Puffer wurde mit Natronlauge auf einen pH-Wert von 7,4 bei 20°C eingestellt. Alle Lösungen wurden kontinuierlich mit 95 % O₂ und 5 % CO₂ gesättigt. Die Gewebeschnitte wurden daraufhin gespült, jeder Gewebeschnitt wurde jeweils willkürlich auf 12 Superfusionseinheiten verteilt und mit dem Puffer bei 37°C bei einer Fließgeschwindigkeit von 1 ml/min überspült. […]
# [3] = molecular target: T1, muscarinischen Rezeptoren des Cortex (Rezeptoren vom M₁-Subtyp) (Rattus norvegicus, UniProt P08482); assay: 3H-NMS binding study at muscarinic receptors of the cortex (cerebral cortex homogenate); parameters: species or system Sprague-Dawley-Ratten; conditions: 0,3 nM ³H-NMS, Großhirnrinde homogenate 1:3000, 30°C, 45 min
# T1 sequence (P08482 1-460): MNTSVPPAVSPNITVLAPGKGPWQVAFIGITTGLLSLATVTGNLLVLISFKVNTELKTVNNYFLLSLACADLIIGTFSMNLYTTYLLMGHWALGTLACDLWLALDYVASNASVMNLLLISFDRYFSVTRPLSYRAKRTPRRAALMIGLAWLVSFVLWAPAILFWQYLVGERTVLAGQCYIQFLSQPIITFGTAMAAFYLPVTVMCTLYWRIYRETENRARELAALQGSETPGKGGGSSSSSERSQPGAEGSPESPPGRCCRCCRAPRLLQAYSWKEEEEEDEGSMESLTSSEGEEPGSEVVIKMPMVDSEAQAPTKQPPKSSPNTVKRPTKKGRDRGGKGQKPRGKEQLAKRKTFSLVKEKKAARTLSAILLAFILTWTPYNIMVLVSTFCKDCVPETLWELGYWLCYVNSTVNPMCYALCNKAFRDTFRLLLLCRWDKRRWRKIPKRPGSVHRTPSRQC
# Source text: Als Organspender dienten männliche Sprague-Dawley-Ratten mit 180-220 g Körpergewicht. Nach Entnahme der Großhirnrinde wurden alle weiteren Schritte in eiskaltem Hepes-HCl-Puffer (pH 7,4; 100 m molar NaCl, 10 m molar MgCl₂) vorgenommen. Das Gesamtherz wurde mit einer Schere zerkleinert. Alle Organe wurden abschließend in einem Potter homogenisiert.
# Für den Bindungstest wurden die Organhomogenate in folgender Weise verdünnt:
# Die Inkubation der Organhomogenate erfolgte bei einer bestimmten Konzentration des Radioliganden und einer Konzentrationsreihe der nichtradioaktiven Testsubstanzen im Eppendorf-Zentrifugenröhrchen bei 30°C. Die Inkubationsdauer betrug 45 Minuten. Als Radioligand wurde 0,3 n molar ³H-N-Methylscopolamin (³H-NMS) verwendet. Die Inkubation wurde durch Zugabe von eiskaltem Puffer mit nachfolgender Vakuumfiltration beendet. Die Filter wurden mit kaltem Puffer gespült und ihre Radioaktivität bestimmt. Sie repräsentiert die Summe von spezifischer und unspezifischer Bindung von ³H-NMS. Der Anteil der unspezifischen Bindung wurde defi niert als jene Radioaktivität, die in Anwesenheit von 1 µ molar Chinuclidinylbenzilat gebunden wurde. Es wurden immer Vierfachbestimmungen vorgenommen. Die IC₅₀-Werte der nichtmarkierten Testsubstanzen wurden graphisch bestimmt. […]
smiles,measurement,setting,value
"CCN(CCCC(=O)N1CCC(C(=O)N(C)C)CC1)C(C)Cc1ccc(OC)cc1 (racemic) [Substanz I, (±)-1-[4-[Ethyl[2-(4-methoxyphenyl)-1-methylethyl]amino]-1-oxobutyl]-N,N-dimethyl-4-piperidincarboxamid]",-log IC₅₀ (M),[1],"8,2"
same,ACh-Release am Hippocampus-Gewebe (pA₂),"[2]; rat hippocampal slices, electrical stimulation, agonist Carbachol","8,7"
same,Verhältnis von IC₅₀ (Cortex) zu pA₂(ACh-Release),[2]; selectivity ratio: cortex (M₁) binding versus ACh release in hippocampus,25
same,Rezeptor-Bingungstests Cortex -log IC₅₀ (M),[3],"7,3"
